Measured values: US9963506B2, “Human-mouse chimeric anti-CD147 antibody with non-fucosylated glycosylation” (Fourth Military Medical University, priority 2015, dated 2018)

Legend:
NCI-H520 cells [1] = experiment: ADCC assay (LDH release), human spleen effector cells; assay type: cell-based; settings: NCI-H520 target cells
Method: (§1) NCI-H520, A549 and NCI-H446 cells (1×10^4 per well) were incubated with Metuzumab or cHAb18 mAb for 30 min at 37° C. Effector cells (Spleen cells) were added at the ratio of effector cells to […] (E/T) 50:1 for 24 hours at 37° C. in CO2 incubator. After centrifugation, supernatants were harvested and lactate dehydrogenase (LDH) activity were measured. Data represent mean±SD of five independent experiments.
(§2) The ADCC activity was determined by measuring lactate dehydrogenase (LDH) activity in the medium using a Cytotoxicity Detection Kit (LDH; Roche) according to the manufacturer's protocols.
(§3) In vitro ADCC assays were performed with human lung cancer cell lines (NCI-H520, A549 and NCI-H446) as target cells, and human spleen cells were used as effector cells. The target cells (1×10^4 per well) were washed with PBS and pre-incubated with antibodies solution for 30 min at 37° C. in serum-free RPMI-1640 supplemented with 0.1% BSA. The antibody solution (Metuzumab or the chimeric antibody cHAb18 mAb) that has been adjusted to a concentration of 0.001, 0.01, 0.1, 1 or 10 μg/ml was dispensed at 100 μl/well into each well that contained the target cells, Subsequently, 100 μl of the effector cells at an effector/target ratio of 50:1 was dispensed into each well, and incubated at in a carbon dioxide incubator. The cells were incubated for an additional 24 h prior to the detection of cell death by measuring lactate dehydrogenase (LDH) activity in the medium using a Cytotoxicity Detection Kit (LDH; Roche) according to the manufacturer's protocols. The ADCC-inducing activity was calculated to the following formula: Cytotoxicity (expressed as a percentage)=(experimental cell lysis−spontaneous effector lysis−spontaneous target lysis)/(maximum target lysis−spontaneous target lysis)×100%. All assays were performed in triplicate.

NCI-H446 cells = experiment: as above; assay type: cell-based; settings: NCI-H446 target cells
Method: as §1, §2, §3

A549 cells [2] = experiment: as above; assay type: cell-based; settings: A549 target cells
Method: as §1, §2, §3

CD147^+ A549 cells = target: T1, CD147^+ A549 cells (Homo sapiens, UniProt P35613); experiment: Antigen-binding activity by flow cytometry
T1 construct: endogenous in cells; host or cells: A549 (human lung cancer cell line)
T1 sequence (P35613 22-269 isoform P35613-2 limits assumed): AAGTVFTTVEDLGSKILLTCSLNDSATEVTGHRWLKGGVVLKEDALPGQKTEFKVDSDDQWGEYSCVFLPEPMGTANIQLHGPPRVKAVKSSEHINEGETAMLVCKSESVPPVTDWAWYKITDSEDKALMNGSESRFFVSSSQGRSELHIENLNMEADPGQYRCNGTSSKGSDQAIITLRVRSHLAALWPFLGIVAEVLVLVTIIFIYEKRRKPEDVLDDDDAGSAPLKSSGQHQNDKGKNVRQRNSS
Method: The antibody concentration is 0.001 μg/mL, 0.01 μg/mL, 0.1 μg/mL, 1 μg/ml and 10 μg/mL, respectively.
A549 cells (10^6 cells) were incubated with the Metuzumab (HcHAb18) and cHAb18 antibody, respectively, in PBS with 0.1% BSA at 4° C. for 1 h. After three washes in PBS with 0.1% BSA, cells were incubated with the FITC-conjugated Rabbit anti-Human IgG Fc Secondary Antibody (Pierce) at 4° C. in the dark for 45 min. Cells were then washed three times and suspended in PBS for analysis using a FACS Calibur flow cytometer (BD, New Jersey, U.S.). Relative antigen expression is reported as median fluorescence intensity (MFI).

NCI-H520 cells [3] = experiment: Subcutaneous xenograft model, tumor growth inhibition; assay type: in vivo, SCID mice; settings: tail vein
Method: (§4) Mice injected with NCI-H520 cells subcutaneously in the right dorsal flank were treated by intravenous saline; 2 mg/kg Cisplatin and 100 mg/kg Gemcitabine; Metuzumab infusion at 2 mg/kg, 10 mg/kg and 30 mg/kg; combination of 10 mg/kg Metuzumab with 2 mg/kg Cisplatin and 100 mg/kg Gemcitabine; wherein the antibodies were injected twice weekly for 3 week consecutively, while the chemotherapeutic agents were injected once a week for 3 weeks consecutively. The tumors were measured twice a week.
(§5) Animals were housed in specific pathogen-free (SPF) condition. For the localized subcutaneous xenograft mouse model, 1×10^6 NCI-H520 or A549 cells, suspended in Hank's balanced salt solution were implanted in the right dorsal flank of male SCID mice (6-8 week old). When tumors reached a mean volume of 100 mm^3, mice were randomized into treatment cohorts (n=10 mice per group). Mice were grouped for different treatments, including Metuzumab treatment groups treated with 2 mg/kg, 10 mg/kg and 30 mg/kg Metuzumab; chemistry treatment group treated with 2 mg/kg Cisplatin and 100 mg/kg Gemcitabine; combination treatment group treated with 10 mg/kg Metuzumab with 2 mg/kg Cisplatin and 100 mg/kg Gemcitabine, or saline (control group) via tail vein, respectively. Antibody injections were administered twice weekly, for 3 weeks consecutively; chemotherapeutic agents were administered once a week, for 3 weeks consecutively. Tumor size was measured twice each week for the duration of the study using calipers. Tumor volumes were determined using the following formula: […]. Antitumor activity was assessed by calculating inhibition ratio of tumor volumes (IRTV) based on medians by using following formula: [1−average (Ttreatment (day x)−Ttreatment (day 0))/average (Tcontrol (day x)−Tcontrol (day 0))]×100%.

A549 cells [4] = experiment: as above; assay type: in vivo, SCID mice; settings: tail vein
Method: as §4, with “A549” for “NCI-H520”
as §5

[5] = 2 mg/kg twice weekly for 3 weeks
[6] = 10 mg/kg twice weekly for 3 weeks
[7] = 30 mg/kg twice weekly for 3 weeks

Metuzumab: human-mouse chimeric anti-CD147 IgG1, heavy chain SEQ ID NO: 4, light chain SEQ ID NO: 3, Mannose-5 glycoform lacking fucose and xylose
ADCC-inducing activity increase over cHAb18 mAb (NCI-H520 cells [1]): about 10 folds
EC50% (ADCC) (NCI-H520 cells [1]; effector/target 50:1, 24 h): 0.04 µg/mL
ADCC-inducing activity increase over cHAb18 mAb (NCI-H446 cells): about 10 folds
EC50% (ADCC) (NCI-H446 cells; effector/target 50:1, 24 h): 0.11 µg/mL
ADCC-inducing activity increase over cHAb18 mAb (A549 cells [2]): about 10 folds
EC50% (ADCC) (A549 cells [2]; effector/target 50:1, 24 h): 0.06 µg/mL
CD147-binding ability, Metuzumab compared with cHAb18 (CD147^+ A549 cells; FIG. 4): similar
Binding to CD147^+ A549 cells (CD147^+ A549 cells; FIG. 4, 0.001-10 μg/mL): bound
inhibition ratio of tumor volumes (IRTV) (NCI-H520 cells [3]; [5]): 49.53%
inhibition ratio of tumor volumes (IRTV) (NCI-H520 cells [3]; [6]): 53.34%
inhibition ratio of tumor volumes (IRTV) (NCI-H520 cells [3]; [7]): 57.75%
tumor volume inhibition rate (A549 cells [4]; [5]): 14.78%
tumor volume inhibition rate (A549 cells [4]; [6]): 26.52%
tumor volume inhibition rate (A549 cells [4]; [7]): 50.64%
